Test results as given in patent US8748614B2, “Substituted isoquinoline and isoquinolinone derivatives” (Sanofi, priority 2006, dated 2014).
Counter-ions that a name gives are not always drawn.

Target: T1, human recombinant ROCK II (Homo sapiens, UniProt O75116)
T1 construct: recombinant human ROCK-II residues 11-552; His6 (N); purchased Upstate Ltd., Dundee, UK
Test: Determination of Rho Kinase Inhibition (ROCK II, Caliper peptide phosphorylation assay)
Type: biochemical
Conditions: 60 min incubation at 32° C., respective form (salt or free base) as obtained in the examples
Experimental: Determination of Rho Kinase Inhibition
To measure Rho-kinase inhibition, IC50 values were determined according to the following protocol:
Active human recombinant ROCK II (N-terminal His6-tagged recombinant human ROCK-II residues 11-552) was purchased from Upstate Ltd., Dundee, UK. The peptide substrate, Fluorescein-AKRRRLSSLRA-COOH, was obtained from JPT Peptide Technologies, Berlin, Germany. Adenosine-5′-triphosphate (ATP), bovine serum albumine (BSA), dimethylsulphoxide (DMSO), 4-(2-Hydroxyethyl)piperazine-1-ethanesulfonic acid (Hepes), Brij-35 and dithiothreitol (DTT) were purchased from Sigma-Aldrich, Munich, Germany. Tris(hydroxymethyl)-aminomethane (Tris), magnesium chloride, NaOH, 1M HCl and EDTA were obtained from Merck Biosciences, Darmstadt, Germany. “Complete” protease inhibitor was from Roche Diagnostics, Mannheim, Germany.
Test compounds were diluted to the appropriate concentrations in buffer 1 (25 mM Tris-HCl, pH 7.4, 5 mM MgCl2, 2 mM DTT, 0.02% (w/v) BSA and 3% DMSO). The ROCK II enzyme was diluted to a concentration of 100 ng/ml in buffer 2 (25 mM Tris-HCl, pH 7.4, 5 mM MgCl2, 2 mM DTT and 0.02% (w/v) BSA). The peptide substrate and ATP were diluted to concentrations of 3 μM and 120 μM, respectively, in the buffer 2. Two μl of the compound solution were mixed with 2 μl of the diluted enzyme in a 384-well small volume microtiter plate (Greiner, Bio-One, Frickenhausen, Germany), and the kinase reaction was initiated by addition of 2 μl of the solution containing peptide substrate and ATP. After 60 min incubation at 32° C., the reaction was stopped by addition of 20 μl of a solution containing 100 mM Hepes-NaOH, pH 7.4, 0.015% (v/v) Brij-35, 45 mM EDTA and 0.227% chip coating reagent 1 (Caliper Lifescience Inc, Hopkinton, Mass.). Phosphorylation of the substrate peptide was then detected on a Caliper 3000 instrument essentially as described by Pommereau et al (J. Biomol. Screening 9(5), 409-416, 2004). Separation conditions were as follows: Pressure −1.3 psi, upstream voltage −1562 V, downstream voltage −500 V, sample sip time 200 ms. Positive controls (buffer 1 instead of compound) and negative controls (buffer 1 instead of compound and buffer 2 instead of ROCK II) were run in parallel on each plate. The following products/compounds were tested in said assay by using the respective form (salt or free base) obtained as in the examples described above and the following activities were measured.

T1 sequence (O75116 11-552): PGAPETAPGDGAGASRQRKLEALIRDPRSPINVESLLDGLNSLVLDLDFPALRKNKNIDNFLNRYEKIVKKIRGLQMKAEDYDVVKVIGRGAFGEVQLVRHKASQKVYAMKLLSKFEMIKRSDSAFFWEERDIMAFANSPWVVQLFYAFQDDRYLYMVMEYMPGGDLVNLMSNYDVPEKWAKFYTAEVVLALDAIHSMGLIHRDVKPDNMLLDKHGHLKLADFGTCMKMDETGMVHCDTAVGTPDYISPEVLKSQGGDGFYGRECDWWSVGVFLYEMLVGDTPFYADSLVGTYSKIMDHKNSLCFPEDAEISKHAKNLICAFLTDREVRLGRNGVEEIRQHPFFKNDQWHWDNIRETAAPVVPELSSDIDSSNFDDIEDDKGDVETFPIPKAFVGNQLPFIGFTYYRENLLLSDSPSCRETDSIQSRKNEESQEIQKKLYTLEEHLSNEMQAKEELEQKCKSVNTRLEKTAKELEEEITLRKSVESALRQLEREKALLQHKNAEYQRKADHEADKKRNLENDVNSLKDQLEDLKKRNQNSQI

Row | IC50 | Compound
1 | ≤ 1000 nM | Clc1cc2cnccc2cc1SC1CCCNC1 (racemic) [Example 269, (Rac)-7-Chloro-6-(piperidin-3-ylsulfanyl)-isoquinoline hydrochloride]
2 | ≤ 1000 nM | Brc1cc2cnccc2cc1SC1CCCNCC1 (racemic) [Example 271, (Rac)-6-(Azepan-4-ylsulfanyl)-7-bromo-isoquinoline hydrochloride]
3 | 1000 to 10000 nM | CN(c1ccc2cnccc2c1)C1CCN(CCC(F)(F)F)CC1 [Example 99, Isoquinolin-6-yl-methyl-[1-(3,3,3-trifluoro-propyl)-piperidin-4-yl]-amine]
4 | 1000 to 10000 nM | c1cc2cc(N[C@@H]3CCCN(CC4CC4)C3)ccc2cn1 [Example 166, ((R)-1-Cyclopropylmethyl-piperidin-3-yl)-isoquinolin-6-yl-amine]
5 | 1000 to 10000 nM | c1cc2cc(N[C@@H]3CCCN(CC4CCCCC4)C3)ccc2cn1 [Example 169, ((R)-1-Cyclohexylmethyl-piperidin-3-yl)-isoquinolin-6-yl-amine]
6 | 1000 to 10000 nM | CCCN1CCC[C@@H](Nc2ccc3c(=O)[nH]ccc3c2)C1 [Example 195, 6-((R)-1-Propyl-piperidin-3-ylamino)-2H-isoquinolin-1-one]
7 | ≤ 1000 nM | CCCCN1CCC[C@@H](Nc2ccc3c(=O)[nH]ccc3c2)C1 [Example 196, 6-((R)-1-Butyl-piperidin-3-ylamino)-2H-isoquinolin-1-one]
8 | ≤ 1000 nM | CC(C)CCN1CCC[C@@H](Nc2ccc3c(=O)[nH]ccc3c2)C1 [Example 199, 6-[(R)-1-(3-Methyl-butyl)-piperidin-3-ylamino]-2H-isoquinolin-1-one]
9 | ≤ 1000 nM | O=c1[nH]ccc2cc(N[C@@H]3CCCN(Cc4ccccc4)C3)ccc12 [Example 207, 6-((R)-1-Benzyl-piperidin-3-ylamino)-2H-isoquinolin-1-one]
10 | 1000 to 10000 nM | O=c1[nH]ccc2cc(N[C@@H]3CCCN(Cc4ccncc4)C3)ccc12 [Example 213, 6-((R)-1-Pyridin-4-ylmethyl-piperidin-3-ylamino)-2H-isoquinolin-1-one]
11 | 1000 to 10000 nM | O=c1[nH]ccc2cc(N[C@@H]3CCCN(Cc4ccccn4)C3)ccc12 [Example 215, 6-((R)-1-Pyridin-2-ylmethyl-piperidin-3-ylamino)-2H-isoquinolin-1-one]
12 | ≤ 1000 nM | O=c1[nH]ccc2cc(N[C@@H]3CCCN(Cc4ccc5ccccc5c4)C3)ccc12 [Example 218, 6-((R)-1-Naphthalen-2-ylmethyl-piperidin-3-ylamino)-2H-isoquinolin-1-one]
13 | ≤ 1000 nM | O=c1[nH]ccc2cc(N[C@H]3CCN(Cc4cccc(Cl)c4F)C3)ccc12 [Example 220, 6-[(S)-1-(3-Chloro-2-fluoro-benzyl)-pyrrolidin-3-ylamino]-2H-isoquinolin-1-one]
14 | ≤ 1000 nM | O=c1[nH]ccc2cc(N[C@H]3CCN(CC4CC4)C3)ccc12 [Example 226, 6-((S)-1-Cyclopropylmethyl-pyrrolidin-3-ylamino)-2H-isoquinolin-1-one]
15 | 1000 to 10000 nM | O=c1[nH]ccc2cc(N[C@H]3CCN(Cc4cc(Cl)cc(Cl)c4)C3)ccc12 [Example 234, 6-[(S)-1-(3,5-Dichloro-benzyl)-pyrrolidin-3-ylamino]-2H-isoquinolin-1-one]
16 | ≤ 1000 nM | Cc1ccc(CN2CC[C@H](Nc3ccc4c(=O)[nH]ccc4c3)C2)cc1 [Example 236, 6-[(S)-1-(4-Methyl-benzyl)-pyrrolidin-3-ylamino]-2H-isoquinolin-1-one]
17 | ≤ 1000 nM | O=c1[nH]ccc2cc(N[C@H]3CCN(Cc4ccc5ccccc5c4)C3)ccc12 [Example 243, 6-((S)-1-Naphthalen-2-ylmethyl-pyrrolidin-3-ylamino)-2H-isoquinolin-1-one]
18 | 1000 to 10000 nM | Cn1cc(CN2CC[C@H](Nc3ccc4c(=O)[nH]ccc4c3)C2)cn1 [Example 246, 6-[(S)-1-(1-Methyl-1H-pyrazol-4-ylmethyl)-pyrrolidin-3-ylamino]-2H-isoquinolin-1-one]
19 | 1000 to 10000 nM | O=c1[nH]ccc2cc(N[C@H]3CCN(CC4CCCNC4)C3)ccc12 (stereo partly drawn) [Example 248, 6-((S)-1-Piperidin-3-ylmethyl-pyrrolidin-3-ylamino)-2H-isoquinolin-1-one]
20 | ≤ 1000 nM | O=c1[nH]ccc2cc(NC3CN(Cc4cccc(Cl)c4F)C3)ccc12 [Example 249, 6-[1-(3-Chloro-2-fluoro-benzyl)-azetidin-3-ylamino]-2H-isoquinolin-1-one]
21 | 1000 to 10000 nM | CC(C)N1CC(Nc2ccc3c(=O)[nH]ccc3c2)C1 [Example 251, 6-(1-Isopropyl-azetidin-3-ylamino)-2H-isoquinolin-1-one]
22 | 1000 to 10000 nM | O=c1[nH]ccc2cc(NC3CN(CC4CC4)C3)ccc12 [Example 253, 6-(1-Cyclopropylmethyl-azetidin-3-ylamino)-2H-isoquinolin-1-one]
23 | ≤ 1000 nM | O=c1[nH]ccc2cc(NC3CN(Cc4ccccc4Cl)C3)ccc12 [Example 259, 6-[1-(2-Chloro-benzyl)-azetidin-3-ylamino]-2H-isoquinolin-1-one]
24 | ≤ 1000 nM | CCCc1cc2cnccc2cc1SC1CCNCC1 [Example 277, 6-(Piperidin-4-ylsulfanyl)-7-propyl-isoquinoline hydrochloride]
25 | 1000 to 10000 nM | Clc1cc2cnccc2cc1SCC1CCNCC1 [Example 279, 7-Chloro-6-(piperidin-4-ylmethylsulfanyl)-isoquinoline hydrochloride]
26 | ≤ 1000 nM | O=c1[nH]ccc2cc(SC3CCNCC3)c(Cl)cc12 [Example 286, 7-Chloro-6-(piperidin-4-ylsulfanyl)-2H-isoquinolin-1-one hydrochloride]
27 | ≤ 1000 nM | O=c1[nH]ccc2cc(S(=O)(=O)C3CCNCC3)c(Cl)cc12 [Example 288, 7-Chloro-6-(piperidine-4-sulfonyl)-2H-isoquinolin-1-one hydrochloride]
28 | 1000 to 10000 nM | O=c1[nH]ccc2cc([S+]([O-])C3CCNCC3)c(Cl)cc12 (stereo not shown) [Example 290, 7-Chloro-6-(piperidine-4-sulfinyl)-2H-isoquinolin-1-one hydrochloride]
